Results taken from patent publication US20110039721A1, “METHOD FOR PREDICTION ABOUT CARCINOGENICITY OF SUBSTANCE IN RODENT” (Chemicals Evaluation and Research Institute, priority 2007, published 2011).

Experiments:
[1] = system: mRNA expressed from the genes (A) to (D) in rat liver; assay: Behavior of genes (mRNA expression level, oligo-DNA microarray) in rat liver after 28-day oral administration; type: in vivo; details: rat liver, oral once daily 28 days; for Behavior of gene caused by administration of chemical substance, Gene No. 4846 / Behavior of gene caused by administration of chemical substance, Gene No. 4218 / Behavior of gene caused by administration of chemical substance, Gene No. 2026 / Behavior of gene caused by administration of chemical substance, Gene No. 6182 / Behavior of gene caused by administration of chemical substance, Gene No. 5600: (A); for Behavior of gene caused by administration of chemical substance, Gene No. 4846: Unigene Rn.144554, defined direction +; for Behavior of gene caused by administration of chemical substance, Gene No. 4218: Unigene Rn.167075, defined direction +, significant = 1.5 times or more or 1/1.5 or less of control; for Behavior of gene caused by administration of chemical substance, Gene No. 2026: Unigene Rn.167075, defined direction −; for Behavior of gene caused by administration of chemical substance, Gene No. 6182: Unigene Rn.5834, defined direction +; for Behavior of gene caused by administration of chemical substance, Gene No. 5600: Unigene Rn.9836, defined direction +; for Behavior of gene caused by administration of chemical substance, Gene No. 1494 / Behavior of gene caused by administration of chemical substance, Gene No. 2045 / Behavior of gene caused by administration of chemical substance, Gene No. 2203: (B); for Behavior of gene caused by administration of chemical substance, Gene No. 1494: Unigene Rn.1430, defined direction −; for Behavior of gene caused by administration of chemical substance, Gene No. 2045: Unigene Rn.19329, defined direction +; for Behavior of gene caused by administration of chemical substance, Gene No. 2203: Unigene Rn.21240, defined direction +; for Behavior of gene caused by administration of chemical substance, Gene No. 533 / Behavior of gene caused by administration of chemical substance, Gene No. 725 / Behavior of gene caused by administration of chemical substance, Gene No. 1163 / Behavior of gene caused by administration of chemical substance, Gene No. 4973 / Behavior of gene caused by administration of chemical substance, Gene No. 4095 / Behavior of gene caused by administration of chemical substance, Gene No. 1334 / Behavior of gene caused by administration of chemical substance, Gene No. 6620 / Behavior of gene caused by administration of chemical substance, Gene No. 6303 / Behavior of gene caused by administration of chemical substance, Gene No. 5878 / Behavior of gene caused by administration of chemical substance, Gene No. 1131 / Behavior of gene caused by administration of chemical substance, Gene No. 1562 / Behavior of gene caused by administration of chemical substance, Gene No. 1741 / Behavior of gene caused by administration of chemical substance, Gene No. 893 / Behavior of gene caused by administration of chemical substance, Gene No. 6026 / Behavior of gene caused by administration of chemical substance, Gene No. 154 / Behavior of gene caused by administration of chemical substance, Gene No. 1993 / Behavior of gene caused by administration of chemical substance, Gene No. 813 / Behavior of gene caused by administration of chemical substance, Gene No. 2494 / Behavior of gene caused by administration of chemical substance, Gene No. 2546 / Behavior of gene caused by administration of chemical substance, Gene No. 3776 / Behavior of gene caused by administration of chemical substance, Gene No. 3929 / Behavior of gene caused by administration of chemical substance, Gene No. 1119 / Behavior of gene caused by administration of chemical substance, Gene No. 6742 / Behavior of gene caused by administration of chemical substance, Gene No. 5634: (C); for Behavior of gene caused by administration of chemical substance, Gene No. 533: Unigene Rn.106184, defined direction +; for Behavior of gene caused by administration of chemical substance, Gene No. 725: Unigene Rn.108075, defined direction −; for Behavior of gene caused by administration of chemical substance, Gene No. 1163: Unigene Rn.11766, defined direction +; for Behavior of gene caused by administration of chemical substance, Gene No. 4973: Unigene Rn.118529, defined direction −; for Behavior of gene caused by administration of chemical substance, Gene No. 4095: Unigene Rn.119024, defined direction −; for Behavior of gene caused by administration of chemical substance, Gene No. 1334 / Behavior of gene caused by administration of chemical substance, Gene No. 6620: Unigene Rn.120914, defined direction +; for Behavior of gene caused by administration of chemical substance, Gene No. 6303: Unigene Rn.123063, defined direction −; for Behavior of gene caused by administration of chemical substance, Gene No. 5878: Unigene Rn.143213, defined direction −; for Behavior of gene caused by administration of chemical substance, Gene No. 1131: Unigene Rn.144946, defined direction −; for Behavior of gene caused by administration of chemical substance, Gene No. 1562: Unigene Rn.14744, defined direction −; for Behavior of gene caused by administration of chemical substance, Gene No. 1741: Unigene Rn.1647, defined direction −; for Behavior of gene caused by administration of chemical substance, Gene No. 893: Unigene Rn.164817, defined direction +; for Behavior of gene caused by administration of chemical substance, Gene No. 6026: Unigene Rn.167685, defined direction −; for Behavior of gene caused by administration of chemical substance, Gene No. 154: Unigene Rn.185941, defined direction −; for Behavior of gene caused by administration of chemical substance, Gene No. 1993: Unigene Rn.18728, defined direction −; for Behavior of gene caused by administration of chemical substance, Gene No. 813: Unigene Rn.201760, defined direction +; for Behavior of gene caused by administration of chemical substance, Gene No. 2494: Unigene Rn.23969, defined direction +; for Behavior of gene caused by administration of chemical substance, Gene No. 2546: Unigene Rn.24561, defined direction −; for Behavior of gene caused by administration of chemical substance, Gene No. 3776: Unigene Rn.43232, defined direction −; for Behavior of gene caused by administration of chemical substance, Gene No. 3929: Unigene Rn.4620, defined direction +; for Behavior of gene caused by administration of chemical substance, Gene No. 1119: Unigene Rn.9757, defined direction +; for Behavior of gene caused by administration of chemical substance, Gene No. 6742: Unigene Rn.9779, defined direction +; for Behavior of gene caused by administration of chemical substance, Gene No. 5634: Unigene Rn.9862, defined direction −; for Behavior of gene caused by administration of chemical substance, Gene No. 5726: (D), Unigene Rn.9939, defined direction −
Method in brief: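 Rat liver RNA after 28 days of daily gavage dosing (male F344, 5 weeks old, four per group). A change reaching 1.5-fold, or 1/1.5, against solvent control scores as significant; opposite direction versus another carcinogen scores as not significant.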

liver = details: in vivo; cited from earlier work
rodent = details: in vivo; cited from earlier work

SMILES	Behavior of gene caused by administration of chemical substance, Gene No. 4846 [1]	Behavior of gene caused by administration of chemical substance, Gene No. 4218 [1]	Behavior of gene caused by administration of chemical substance, Gene No. 2026 [1]	Behavior of gene caused by administration of chemical substance, Gene No. 6182 [1]	Behavior of gene caused by administration of chemical substance, Gene No. 5600 [1]	Behavior of gene caused by administration of chemical substance, Gene No. 1494 [1]	Behavior of gene caused by administration of chemical substance, Gene No. 2045 [1]	Behavior of gene caused by administration of chemical substance, Gene No. 2203 [1]	Behavior of gene caused by administration of chemical substance, Gene No. 533 [1]	Behavior of gene caused by administration of chemical substance, Gene No. 725 [1]	Behavior of gene caused by administration of chemical substance, Gene No. 1163 [1]	Behavior of gene caused by administration of chemical substance, Gene No. 4973 [1]	Behavior of gene caused by administration of chemical substance, Gene No. 4095 [1]	Behavior of gene caused by administration of chemical substance, Gene No. 1334 [1]	Behavior of gene caused by administration of chemical substance, Gene No. 6620 [1]	Behavior of gene caused by administration of chemical substance, Gene No. 6303 [1]	Behavior of gene caused by administration of chemical substance, Gene No. 5878 [1]	Behavior of gene caused by administration of chemical substance, Gene No. 1131 [1]	Behavior of gene caused by administration of chemical substance, Gene No. 1562 [1]	Behavior of gene caused by administration of chemical substance, Gene No. 1741 [1]	other results
c1ccoc1 [TS028, Furan]	+	+	+	+	+	+	−	−	+	−	−	+	+	−	−	+	+	−	+	+	Behavior of gene caused by administration of chemical substance, Gene No. 893 [1]: −; Behavior of gene caused by administration of chemical substance, Gene No. 6026 [1]: −; Behavior of gene caused by administration of chemical substance, Gene No. 154 [1]: +; Behavior of gene caused by administration of chemical substance, Gene No. 1993 [1]: +; Behavior of gene caused by administration of chemical substance, Gene No. 813 [1]: +; Behavior of gene caused by administration of chemical substance, Gene No. 2494 [1]: −; Behavior of gene caused by administration of chemical substance, Gene No. 2546 [1]: −; Behavior of gene caused by administration of chemical substance, Gene No. 3776 [1]: +; Behavior of gene caused by administration of chemical substance, Gene No. 3929 [1]: +; Behavior of gene caused by administration of chemical substance, Gene No. 1119 [1]: +; Behavior of gene caused by administration of chemical substance, Gene No. 6742 [1]: +; Behavior of gene caused by administration of chemical substance, Gene No. 5634 [1]: +; Behavior of gene caused by administration of chemical substance, Gene No. 5726 [1]: −; Liver carcinogenicity (liver): Cr+; Carcinogenicity (rodent): C+
CC(=N)S [TS030, Thioacetoamide]	+	+	+	+	+	+	−	−	+	+	−	+	+	−	−	+	−	−	+	+	Behavior of gene caused by administration of chemical substance, Gene No. 893 [1]: +; Behavior of gene caused by administration of chemical substance, Gene No. 6026 [1]: −; Behavior of gene caused by administration of chemical substance, Gene No. 154 [1]: +; Behavior of gene caused by administration of chemical substance, Gene No. 1993 [1]: +; Behavior of gene caused by administration of chemical substance, Gene No. 813 [1]: +; Behavior of gene caused by administration of chemical substance, Gene No. 2494 [1]: +; Behavior of gene caused by administration of chemical substance, Gene No. 2546 [1]: −; Behavior of gene caused by administration of chemical substance, Gene No. 3776 [1]: +; Behavior of gene caused by administration of chemical substance, Gene No. 3929 [1]: −; Behavior of gene caused by administration of chemical substance, Gene No. 1119 [1]: −; Behavior of gene caused by administration of chemical substance, Gene No. 6742 [1]: −; Behavior of gene caused by administration of chemical substance, Gene No. 5634 [1]: −; Behavior of gene caused by administration of chemical substance, Gene No. 5726 [1]: +; Liver carcinogenicity (liver): Cr+; Carcinogenicity (rodent): C+
